# Reference: US6737383B1, “Herbicidal oxadiazolidines” (priority 1999, dated 2004)
# Experiments:
# winter wheat [1] = test: Test E winter wheat; type: in vivo, Triticum aestivum; details: Postemergence; for Wheat (winter) plant response rating: Rate 250 g/ha
# Method in brief: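 Greenhouse test: compounds in non-phytotoxic solvent with surfactant; for postemergence, sprayed on plants at 1- to 4-leaf stage grown in 60:40 sandy loam/potting mix. Injury rated visually against untreated controls after about 21 to 28 days.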
# winter barley = test: Test E winter barley; type: in vivo, Hordeum vulgare; details: Preemergence; for Barley (winter) plant response rating (0 to 100 scale): Rate 250 g/ha
# Italian ryegrass = test: Test E Italian ryegrass; type: in vivo, Lolium multiflorum; details: Preemergence; for I. Ryegrass plant response rating (0 to 100 scale): Rate 250 g/ha
# winter wheat [2] = test: Test E winter wheat; type: in vivo, Triticum aestivum; details: Preemergence; for Wheat (winter) plant response rating (0 to 100 scale): Rate 250 g/ha
# bamyardgrass = test: Test B flood test barnyardgrass; type: in vivo, Echinochloa crus-galli
# Method in brief: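 Read-out is a visual response score from 0 (no effect) to 10 (complete control), assigned by comparison with untreated controls. Treatment was applied at the 2-leaf stage, and plants stayed in the greenhouse for twelve to sixteen days before scoring.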
# pigweed = test: Test B pre/postemergence pigweed; type: in vivo, Amaranthus retroflexus
# Method in brief: (§1)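 Herbicidal effect was estimated by eye on a ten-point control scale after plants spent twelve to sixteen days in a greenhouse following soil or foliar treatment. Foliar sprays targeted plants at one to four leaves; all doses were formulated in a non-phytotoxic solvent with surfactant.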
# green foxtail = test: Test E green foxtail; type: in vivo, Setaria viridis; details: Preemergence; for Green foxtail plant response rating (0 to 100 scale): Rate 250 g/ha
# wild oat = test: Test E wild oat; type: in vivo, Avena fatua; details: Preemergence; for Wild oat plant response rating (0 to 100 scale): Rate 250 g/ha
# sugar beet = test: Test B pre/postemergence sugar beet; type: in vivo, Beta vulgaris
# Method in brief: as §1
# blackgrass = test: Test E blackgrass; type: in vivo, Alopecurus myosuroides; details: Preemergence; for Blackgrass plant response rating (0 to 100 scale): Rate 250 g/ha
# cocklebur = test: Test B pre/postemergence cocklebur; type: in vivo, Xanthium strumarium
# Method in brief: as §1
# [3] = Rate 1000 g/ha, 0 to 100 scale where 0 is no effect and 100 is complete control
# [4] = 0 to 100 scale where 0 is no effect and 100 is complete control
# [5] = Rate 500 g/ha, 0 to 100 scale, 0 is no effect, 100 is complete control
# [6] = Rate 125 g/ha, 0 to 100 scale (0 no effect, 100 complete control)
# [7] = Rate 500 g/ha, 0 to 100 scale where 0 is no effect and 100 is complete control
# [8] = Rate 1000 g/ha, 0 to 100 scale, 0 no effect, 100 complete control
# [9] = Rate 62 g/ha, headed Pre-emergence (flood test species), scale 0 to 10 (0 no effect, 10 complete control)
# [10] = Rate 125 g/ha, Pre-emergence, flood test species, scale 0 to 10 where 0 is no effect and 10 is complete control
# [11] = Rate 250 g/ha, Pre-emergence, flood-test species, scale 0 to 10, 0 is no effect, 10 is complete control
# [12] = Rate 500 g/ha, Pre-emergence, flood test species, scale 0 to 10 (0 no effect, 10 complete control)
# [13] = Preemergence, Rate 62 g/ha, scale of 0 to 10 where 0 is no effect and 10 is complete control
# [14] = Preemergence, Rate 250 g/ha, scale of 0 to 10 where 0 is no effect and 10 is complete control
# [15] = Preemergence, Rate 500 g/ha, scale of 0 to 10 where 0 is no effect and 10 is complete control
# [16] = Rate 125 g/ha, Postemergence, scale of 0 to 10 where 0 is no effect and 10 is complete control
# [17] = Rate 125 g/ha, Preemergence, scale of 0 to 10 where 0 is no effect and 10 is complete control
# [18] = Rate 250 g/ha, Postemergence, scale of 0 to 10 where 0 is no effect and 10 is complete control
# [19] = Rate 500 g/ha, Postemergence, scale 0 to 10, 0 no effect, 10 complete control
# [20] = Rate 500 g/ha, 0 to 100 scale (0 no effect, 100 complete control)
# [21] = Rate 62 g/ha, Postemergence, scale 0 to 10 (0 no effect, 10 complete control)
# [22] = Postemergence, Rate 31 g/ha, visual rating, scale 0 to 10 (0 no effect, 10 complete control)
# [23] = Preemergence, Rate 31 g/ha, visual rating, scale 0 to 10 (0 no effect, 10 complete control)
# [24] = Rate 16 g/ha, Postemergence, scale 0 to 10, 0 no effect, 10 complete control
# [25] = Rate 16 g/ha, Preemergence, scale 0 to 10, 0 no effect, 10 complete control
smiles,measurement,setting,value
CC(C)N(C(=O)n1oc(=O)n(C2CCCC2)c1=O)c1ccc(F)cc1 [Compound 271],"Plant response rating, Wheat (winter)","winter wheat [1]; Rate 125 g/ha, 0 to 100 scale, 0 is no effect, 100 is complete control",10
same,"Plant response rating, Wheat (winter)",winter wheat [1]; [3],0
same,Wheat (winter) plant response rating,winter wheat [1]; [4],10
same,"Plant response rating, Wheat (winter)",winter wheat [1]; [5],0
same,"Plant response rating, Barley (winter)",winter barley; [6],35
same,Barley (winter) plant response rating (0 to 100 scale),winter barley,45
same,"Plant response rating, Barley (winter)",winter barley; [7],50
same,"Plant response rating, Barley (winter)",winter barley; [8],60
same,"Plant response rating, I. Ryegrass",Italian ryegrass; [6],60
same,I. Ryegrass plant response rating (0 to 100 scale),Italian ryegrass,100
same,"Plant response rating, I. Ryegrass",Italian ryegrass; [7],85
same,"Plant response rating, I. Ryegrass",Italian ryegrass; [8],100
same,"Plant response rating, Wheat (winter)",winter wheat [2]; [6],30
same,Wheat (winter) plant response rating (0 to 100 scale),winter wheat [2],60
same,"Plant response rating, Wheat (winter)",winter wheat [2]; [7],50
same,"Plant response rating, Wheat (winter)",winter wheat [2]; [8],75
same,Barnyardgrass plant response rating,bamyardgrass; [9],4
same,Barnyardgrass plant response rating,bamyardgrass; [10],3
same,Barnyardgrass plant response rating,bamyardgrass; [11],9
same,Barnyardgrass plant response rating,bamyardgrass; [12],9
same,Redroot pigweed plant response rating,pigweed; [13],3
same,Redroot pigweed plant response rating,pigweed; [14],10
same,"Plant response rating, Redroot pigweed",pigweed; [15],10
same,Redroot pigweed plant response rating,pigweed; [16],5
same,Redroot pigweed plant response rating,pigweed; [17],8
same,"Plant response rating, Redroot pigweed",pigweed; [18],7
same,Redroot pigweed plant response rating,pigweed; [19],8
same,"Plant response rating, Green foxtail",green foxtail; [6],70
same,Green foxtail plant response rating (0 to 100 scale),green foxtail,100
same,"Plant response rating, Green foxtail",green foxtail; [7],100
same,"Plant response rating, Green foxtail",green foxtail; [8],100
same,"Plant response rating, Wild oat",wild oat; [6],50
same,Wild oat plant response rating (0 to 100 scale),wild oat,60
same,"Plant response rating, Wild oat",wild oat; [7],65
same,"Plant response rating, Wild oat",wild oat; [8],60
same,Sugarbeets plant response rating,sugar beet; [13],5
same,Sugarbeets plant response rating,sugar beet; [14],8
same,"Plant response rating, Sugarbeets",sugar beet; [15],8
same,Sugarbeets plant response rating,sugar beet; [16],2
same,Sugarbeets plant response rating,sugar beet; [17],6
same,"Plant response rating, Sugarbeets",sugar beet; [18],4
same,Sugarbeets plant response rating,sugar beet; [19],6
same,"Plant response rating, Blackgrass",blackgrass; [6],30
same,Blackgrass plant response rating (0 to 100 scale),blackgrass,100
same,"Plant response rating, Blackgrass",blackgrass; [7],80
same,"Plant response rating, Blackgrass",blackgrass; [8],100
same,Cocklebur plant response rating,cocklebur; [13],0
same,Cocklebur plant response rating,cocklebur; [14],0
same,"Plant response rating, Cocklebur",cocklebur; [15],4
same,Cocklebur plant response rating,"cocklebur; Rate 62 g/ha, Postemergence, scale of 0 to 10 where 0 is no effect and 10 is complete control",0
same,Cocklebur plant response rating,cocklebur; [16],0
same,Cocklebur plant response rating,cocklebur; [17],0
same,"Plant response rating, Cocklebur",cocklebur; [18],1
same,Cocklebur plant response rating,cocklebur; [19],4
CC1Cc2cccc(-n3c(=O)on(C(=O)N(c4ccc(F)cc4)C(C)C)c3=O)c2O1 (stereo not shown) [Compound 281],"Plant response rating, Wheat (winter)",winter wheat [1]; [3],80
same,Wheat (winter) plant response rating,winter wheat [1]; [4],55
same,"Plant response rating, Wheat (winter)",winter wheat [1]; [5],70
same,Barley (winter) plant response rating (0 to 100 scale),winter barley,70
same,"Plant response rating, Barley (winter)",winter barley; [20],70
same,"Plant response rating, Barley (winter)",winter barley; [8],80
same,I. Ryegrass plant response rating (0 to 100 scale),Italian ryegrass,60
same,"Plant response rating, I. Ryegrass",Italian ryegrass; [20],60
same,"Plant response rating, I. Ryegrass",Italian ryegrass; [8],60
same,Wheat (winter) plant response rating (0 to 100 scale),winter wheat [2],60
same,"Plant response rating, Wheat (winter)",winter wheat [2]; [20],65
same,"Plant response rating, Wheat (winter)",winter wheat [2]; [8],80
same,Barnyardgrass plant response rating,bamyardgrass; [9],0
same,Barnyardgrass plant response rating,bamyardgrass; [10],0
same,Barnyardgrass plant response rating,bamyardgrass; [11],4
same,Barnyardgrass plant response rating,bamyardgrass; [12],2
same,Redroot pigweed plant response rating,pigweed; [13],0
same,Redroot pigweed plant response rating,pigweed; [14],0
same,"Plant response rating, Redroot pigweed",pigweed; [15],0
same,Redroot pigweed plant response rating,pigweed; [21],0
same,Redroot pigweed plant response rating,pigweed; [16],2
same,Redroot pigweed plant response rating,pigweed; [17],0
same,"Plant response rating, Redroot pigweed",pigweed; [18],5
same,Redroot pigweed plant response rating,pigweed; [19],6
same,Green foxtail plant response rating (0 to 100 scale),green foxtail,100
same,"Plant response rating, Green foxtail",green foxtail; [20],100
same,"Plant response rating, Green foxtail",green foxtail; [8],100
same,Wild oat plant response rating (0 to 100 scale),wild oat,70
same,"Plant response rating, Wild oat",wild oat; [20],65
same,"Plant response rating, Wild oat",wild oat; [8],80
same,Sugarbeets plant response rating,sugar beet; [13],0
same,Sugarbeets plant response rating,sugar beet; [14],0
same,"Plant response rating, Sugarbeets",sugar beet; [15],0
same,Sugarbeets plant response rating,sugar beet; [21],0
same,Sugarbeets plant response rating,sugar beet; [16],0
same,Sugarbeets plant response rating,sugar beet; [17],0
same,"Plant response rating, Sugarbeets",sugar beet; [18],0
same,Sugarbeets plant response rating,sugar beet; [19],4
same,Blackgrass plant response rating (0 to 100 scale),blackgrass,50
same,"Plant response rating, Blackgrass",blackgrass; [8],50
same,Cocklebur plant response rating,cocklebur; [14],0
same,"Plant response rating, Cocklebur",cocklebur; [15],0
same,Cocklebur plant response rating,cocklebur; [21],0
same,Cocklebur plant response rating,cocklebur; [16],0
same,"Plant response rating, Cocklebur",cocklebur; [18],0
same,Cocklebur plant response rating,cocklebur; [19],0
C=CCCCn1c(=O)on(C(=O)N(c2ccc(F)cc2)C(C)C)c1=O [Compound 291],"Plant response rating, Wheat (winter)",winter wheat [1]; [3],55
same,Wheat (winter) plant response rating,winter wheat [1]; [4],30
same,"Plant response rating, Wheat (winter)",winter wheat [1]; [5],40
same,Barley (winter) plant response rating (0 to 100 scale),winter barley,10
same,"Plant response rating, Barley (winter)",winter barley; [20],30
same,"Plant response rating, Barley (winter)",winter barley; [8],20
same,I. Ryegrass plant response rating (0 to 100 scale),Italian ryegrass,70
same,"Plant response rating, I. Ryegrass",Italian ryegrass; [20],100
same,"Plant response rating, I. Ryegrass",Italian ryegrass; [8],90
same,Wheat (winter) plant response rating (0 to 100 scale),winter wheat [2],35
same,"Plant response rating, Wheat (winter)",winter wheat [2]; [20],50
same,"Plant response rating, Wheat (winter)",winter wheat [2]; [8],60
same,Barnyardgrass plant response rating,"bamyardgrass; Rate 16 g/ha, head printed Pre-emergence (flood test species), scale 0 to 10, 0 no effect, 10 complete control",0
same,Barnyardgrass plant response rating,"bamyardgrass; Rate 31 g/ha, Pre-emergence section (flood test species), scale 0 to 10",2
same,Barnyardgrass plant response rating,bamyardgrass; [9],2
same,Barnyardgrass plant response rating,bamyardgrass; [10],4
same,Barnyardgrass plant response rating,bamyardgrass; [11],4
same,Barnyardgrass plant response rating,bamyardgrass; [12],6
same,Redroot pigweed plant response rating,pigweed; [22],0
same,Redroot pigweed plant response rating,pigweed; [23],0
same,Redroot pigweed plant response rating,pigweed; [13],0
same,Redroot pigweed plant response rating,pigweed; [24],0
same,Redroot pigweed plant response rating,pigweed; [25],0
same,Redroot pigweed plant response rating,pigweed; [21],0
same,Redroot pigweed plant response rating,pigweed; [16],0
same,Redroot pigweed plant response rating,pigweed; [17],0
same,Green foxtail plant response rating (0 to 100 scale),green foxtail,55
same,"Plant response rating, Green foxtail",green foxtail; [20],85
same,"Plant response rating, Green foxtail",green foxtail; [8],100
same,Wild oat plant response rating (0 to 100 scale),wild oat,20
same,"Plant response rating, Wild oat",wild oat; [20],50
same,"Plant response rating, Wild oat",wild oat; [8],60
same,Sugarbeets plant response rating,sugar beet; [22],0
same,Sugarbeets plant response rating,sugar beet; [23],0
same,Sugarbeets plant response rating,sugar beet; [13],0
same,Sugarbeets plant response rating,sugar beet; [24],0
same,Sugarbeets plant response rating,sugar beet; [25],0
same,Sugarbeets plant response rating,sugar beet; [21],0
same,Sugarbeets plant response rating,sugar beet; [16],0
same,Sugarbeets plant response rating,sugar beet; [17],0
same,Blackgrass plant response rating (0 to 100 scale),blackgrass,30
same,"Plant response rating, Blackgrass",blackgrass; [20],40
same,"Plant response rating, Blackgrass",blackgrass; [8],50
same,Cocklebur plant response rating,cocklebur; [22],0
same,Cocklebur plant response rating,cocklebur; [23],0
same,Cocklebur plant response rating,cocklebur; [13],0
same,Cocklebur plant response rating,cocklebur; [24],0
same,Cocklebur plant response rating,cocklebur; [25],0
same,Cocklebur plant response rating,cocklebur; [21],0
same,Cocklebur plant response rating,cocklebur; [16],0
same,Cocklebur plant response rating,cocklebur; [17],0
